Experimental data: ChEMBL document CHEMBL4627246, “Pyroglutamide-Based P2X7 Receptor Antagonists Targeting Inflammatory Bowel Disease” (J Med Chem, 2020)

How the values were obtained:
Assay type in all cases: cell-based
SN12C = assay: Cytotoxicity against human SN12C cells assessed as effect on cell growth at 10 uM incubated for 48 hrs by sulforhodamine B assay
A549 = assay: Cytotoxicity against human A549/ATCC cells assessed as effect on cell growth at 10 uM incubated for 48 hrs by sulforhodamine B assay; conditions: a549, 48 h
K562 = assay: Cytotoxicity against human K562 cells assessed as effect on cell growth at 10 uM incubated for 48 hrs by sulforhodamine B assay; conditions: k562, 48 h
UACC-257 = assay: Cytotoxicity against human UACC257 cells assessed as effect on cell growth at 10 uM incubated for 48 hrs by sulforhodamine B assay; conditions: uacc-257, 48 h
NCI/ADR-RES = assay: Cytotoxicity against human NCI/ADR-RES cells assessed as effect on cell growth at 10 uM incubated for 48 hrs by sulforhodamine B assay
SR = assay: Cytotoxicity against human SR cells assessed as effect on cell growth at 10 uM incubated for 48 hrs by sulforhodamine B assay
LOX IMVI = assay: Cytotoxicity against human LOXIMVI cells assessed as effect on cell growth at 10 uM incubated for 48 hrs by sulforhodamine B assay
Hs-578T = assay: Cytotoxicity against human Hs 578T cells assessed as effect on cell growth at 10 uM incubated for 48 hrs by sulforhodamine B assay
BT-549 = assay: Cytotoxicity against human BT549 cells assessed as effect on cell growth at 10 uM incubated for 48 hrs by sulforhodamine B assay; conditions: bt-549, 48 h
KM12 = assay: Cytotoxicity against human KM12 cells assessed as effect on cell growth at 10 uM incubated for 48 hrs by sulforhodamine B assay; conditions: km12, 48 h
NCI-H226 = assay: Cytotoxicity against human NCI-H226 cells assessed as effect on cell growth at 10 uM incubated for 48 hrs by sulforhodamine B assay; conditions: nci-h226, 48 h
SK-OV-3 = assay: Cytotoxicity against human SKOV3 cells assessed as effect on cell growth at 10 uM incubated for 48 hrs by sulforhodamine B assay; conditions: sk-ov-3, 48 h
HOP-62 = assay: Cytotoxicity against human HOP62 cells assessed as effect on cell growth at 10 uM incubated for 48 hrs by sulforhodamine B assay; conditions: hop-62, 48 h
SK-MEL-5 = assay: Cytotoxicity against human SK-MEL-5 cells assessed as effect on cell growth at 10 uM incubated for 48 hrs by sulforhodamine B assay; conditions: sk-mel-5, 48 h
SF-295 = assay: Cytotoxicity against human SF295 cells assessed as effect on cell growth at 10 uM incubated for 48 hrs by sulforhodamine B assay; conditions: sf-295, 48 h
COLO 205 = assay: Cytotoxicity against human COLO205 cells assessed as effect on cell growth at 10 uM incubated for 48 hrs by sulforhodamine B assay; conditions: colo 205, 48 h
NCI-H522 = assay: Cytotoxicity against human NCI-H522 cells assessed as effect on cell growth at 10 uM incubated for 48 hrs by sulforhodamine B assay; conditions: nci-h522, 48 h
EKVX = assay: Cytotoxicity against human EKVX cells assessed as effect on cell growth at 10 uM incubated for 48 hrs by sulforhodamine B assay
NCI-H460 = assay: Cytotoxicity against human NCI-H460 cells assessed as effect on cell growth at 10 uM incubated for 48 hrs by sulforhodamine B assay; conditions: nci-h460, 48 h
SK-MEL-28 = assay: Cytotoxicity against human SK-MEL-28 cells assessed as effect on cell growth at 10 uM incubated for 48 hrs by sulforhodamine B assay; conditions: sk-mel-28, 48 h

Measured: Activity

CN(Cc1ccccc1)C(=O)[C@@H]1CCC(=O)N1Cc1ccc(Cl)cc1Cl
Non-Toxic: SN12C | A549 | K562 | UACC-257 | NCI/ADR-RES | SR | LOX IMVI | Hs-578T | BT-549 | KM12 | NCI-H226 | SK-OV-3 | HOP-62 | SK-MEL-5 | SF-295 | COLO 205 | NCI-H522 | EKVX | NCI-H460 | SK-MEL-28
